Measured values taken from ChEMBL document CHEMBL4837182, “Pharmacological Analysis of the Anti-inflammatory and Antiallodynic Effects of Zinagrandinolide E from Zinnia grandiflora in Mice” (J Nat Prod, 2021).
Active and inactive are the calls of the source. The rule behind the calls is not given here.

How the values were obtained:
Format in all cases: functional, organism-based
Mus musculus [1] = assay: Antiinflammatory activity in Swiss Webster mouse assessed as reversal of carrageenan-induced paw edema at 30 ug/paw local peripheral administration pretreated with carrageenan for 6 days followed by compound addition and measured 6 hrs post compound treatment; settings: dose 30.0 µg
Mus musculus [2] = assay: Antiinflammatory activity in Swiss Webster mouse assessed as protection against carrageenan-induced paw edema at 30 ug/paw local peripheral pretreatment with compound for 15 mins followed by carrageenan challenge and measured after 6 hrs; settings: dose 30.0 µg, time 375.0 min
Mus musculus [3] = species on record: Mus musculus; assay: Antiallodynic activity in Swiss Webster mouse assessed as protection against carrageenan-induced tactile allodynia at 30 ug/paw local peripheral pretreatment with compound for 15 mins followed by carrageenan challenge and measured after 6 hrs; settings: dose 30.0 µg, time 375.0 min
Mus musculus [4] = assay: Antiinflammatory activity in Swiss Webster mouse assessed as protection against carrageenan-induced paw edema at 30 ug/paw local peripheral administration and measured after 4 to 6 hrs; settings: dose 30.0 µg, time 4-6 hrs
Mus musculus [5] = assay: Antiallodynic activity in Swiss Webster mouse assessed as reversal of carrageenan-induced tactile allodynia at 30 ug/paw local peripheral administration pretreated with carrageenan for 6 days followed by compound addition and measured 6 hrs post compound treatment; settings: dose 30.0 µg
Mus musculus [6] = assay: Antiallodynic activity in hyperglycemic Swiss Webster mouse model of neuropathic pain assessed as reversal of carrageenan-induced tactile allodynia at 30 ug/paw local peripheral administration and measured after 6 hrs; settings: dose 30.0 µg
Mus musculus [7] = species on record: Mus musculus; assay: Antiallodynic activity in hyperglycemic Swiss Webster mouse model of neuropathic pain assessed as reversal of carrageenan-induced tactile allodynia at 30 ug/paw, it and measured after 6 hrs; settings: dose 30.0 µg
Mus musculus [8] = species on record: Mus musculus; assay: Antiallodynic activity in Swiss Webster mouse assessed as protection against carrageenan-induced tactile allodynia at 30 ug/paw pretreated with flumazenil for 15 mins followed by compound addition and measured after 6 hrs; settings: dose 30.0 µg
Mus musculus [9] = species on record: Mus musculus; assay: Antiallodynic activity in Swiss Webster mouse assessed as protection against carrageenan-induced tactile allodynia at 30 ug/paw pretreated with glibenclamide for 15 mins followed by compound addition and measured after 6 hrs; settings: dose 30.0 µg
Mus musculus [10] = assay: Antiinflammatory activity in Swiss Webster mouse assessed as protection against carrageenan-induced paw edema at 30 ug/paw pretreated with naloxone for 15 mins followed by compound addition and measured after 6 hrs; settings: dose 30.0 µg
Mus musculus [11] = species on record: Mus musculus; assay: Antiallodynic activity in Swiss Webster mouse assessed as protection against carrageenan-induced tactile allodynia at 30 ug/paw pretreated with methiothepin for 15 mins followed by compound addition and measured after 6 hrs; settings: dose 30.0 µg
Mus musculus [12] = species on record: Mus musculus; assay: Antiallodynic activity in Swiss Webster mouse assessed as protection against carrageenan-induced tactile allodynia at 30 ug/paw pretreated with ODQ for 15 mins followed by compound addition and measured after 6 hrs; settings: dose 30.0 µg
Mus musculus [13] = assay: Antiinflammatory activity in Swiss Webster mouse assessed as protection against carrageenan-induced paw edema at 30 ug/paw pretreated with flumazenil for 15 mins followed by compound addition and measured after 6 hrs; settings: dose 30.0 µg
Mus musculus [14] = assay: Antiinflammatory activity in local peripheral dosed Swiss Webster mouse assessed as protection against carrageenan-induced paw edema pretreated with compound for 15 mins followed by carrageenan challenge and measured after 6 hrs; settings: dose 1-30 µg, time 375.0 min
Mus musculus [15] = species on record: Mus musculus; assay: Antiallodynic activity in Swiss Webster mouse assessed as protection against carrageenan-induced tactile allodynia at 30 ug/paw pretreated with naloxone for 15 mins followed by compound addition and measured after 6 hrs; settings: dose 30.0 µg
Mus musculus [16] = assay: Antiinflammatory activity in Swiss Webster mouse assessed as protection against carrageenan-induced paw edema at 30 ug/paw pretreated with glibenclamide for 15 mins followed by compound addition and measured after 6 hrs; settings: dose 30.0 µg
Mus musculus [17] = species on record: Mus musculus; assay: Antiallodynic activity in Swiss Webster mouse assessed as protection against carrageenan-induced tactile allodynia at 30 ug/paw pretreated with l-NAME for 15 mins followed by compound addition and measured after 6 hrs; settings: dose 30.0 µg
Mus musculus [18] = assay: Antiallodynic activity in it dosed Swiss Webster mouse assessed as protection against carrageenan-induced tactile allodynia
Mus musculus [19] = assay: Antiinflammatory activity in Swiss Webster mouse assessed as protection against carrageenan-induced paw edema at 30 ug/paw pretreated with methiothepin for 15 mins followed by compound addition and measured after 6 hrs; settings: dose 30.0 µg
Mus musculus [20] = assay: Antiinflammatory activity in Swiss Webster mouse assessed as protection against carrageenan-induced paw edema at 30 ug/paw pretreated with ODQ for 15 mins followed by compound addition and measured after 6 hrs; settings: dose 30.0 µg
Mus musculus [21] = assay: Antiinflammatory activity in Swiss Webster mouse assessed as protection against carrageenan-induced paw edema at 30 ug/paw, it; settings: dose 30.0 µg
Mus musculus [22] = assay: Antiallodynic activity in local peripheral dosed Swiss Webster mouse assessed as protection against carrageenan-induced tactile allodynia pretreated with compound for 15 mins followed by carrageenan challenge and measured after 6 hrs; settings: dose 1-30 µg, time 375.0 min
Mus musculus [23] = assay: Antiinflammatory activity in Swiss Webster mouse assessed as protection against carrageenan-induced paw edema at 30 ug/paw pretreated with l-NAME for 15 mins followed by compound addition and measured after 6 hrs; settings: dose 30.0 µg
Mus musculus [24] = assay: Antiallodynic activity in it dosed hyperglycemic Swiss Webster mouse model of neuropathic pain assessed as reversal of carrageenan-induced tactile allodynia measured after 6 hrs; settings: dose 3-30 µg
Mus musculus [25] = assay: Antiallodynic activity in local peripheral dosed hyperglycemic Swiss Webster mouse model of neuropathic pain assessed as reversal of carrageenan-induced tactile allodynia measured after 6 hrs; settings: dose 3-30 µg
Mus musculus [26] = assay: Antiallodynic activity in local peripheral dosed Swiss Webster mouse assessed as protection against carrageenan-induced tactile allodynia measured every 3 days for 15 days; settings: dose 3-30 µg, time 15.0 day
Mus musculus [27] = assay: Antiinflammatory activity in Swiss Webster mouse assessed as protection against carrageenan-induced paw edema at 3 to 30 ug/paw local peripheral pretreatment with compound for 15 mins before carrageenan challenge and measured every 3 days for 15 days; settings: dose 3-30 µg, time 15.0 day

## O=C(O)Cc1ccccc1Nc1c(Cl)cccc1Cl
Mus musculus [1]
  Activity: inactive
Mus musculus [2]
  Activity: Active
Mus musculus [3]
  Activity: Active
Mus musculus [4]
  Activity: Active
Mus musculus [5]
  Activity: inactive

## CC(C)C[C@H](CN)CC(=O)O
Mus musculus [6]
  Activity: inactive
Mus musculus [7]
  Activity: Active

## C=C[C@@]1(C)[C@H]2OC(=O)C(=C)[C@H]([C@@H]2OC(=O)/C(C)=C\C)[C@H](OC(=O)C(C)C)[C@@H]1C(=C)C(=O)O
Mus musculus [1]
  Activity: Active
Mus musculus [8]
  Activity: inactive
Mus musculus [9]
  Activity: inactive
Mus musculus [10]
  Activity: inactive
Mus musculus [11]
  Activity: inactive
Mus musculus [12]
  Activity: inactive
Mus musculus [2]
  Activity: Active
Mus musculus [13]
  Activity: inactive
Mus musculus [14]
  Activity: Dose-Dependent Effect
Mus musculus [15]
  Activity: inactive
Mus musculus [16]
  Activity: inactive
Mus musculus [6]
  Activity: Active
Mus musculus [3]
  Activity: Active
Mus musculus [17]
  Activity: inactive
Mus musculus [18]
  Activity: Dose-Dependent Effect
Mus musculus [7]
  Activity: Active
Mus musculus [4]
  Activity: Active
Mus musculus [19]
  Activity: inactive
Mus musculus [20]
  Activity: inactive
Mus musculus [21]
  Activity: inactive
Mus musculus [22]
  Activity: Dose-Dependent Effect
Mus musculus [23]
  Activity: inactive
Mus musculus [24]
  Activity: Dose-Dependent Effect
Mus musculus [25]
  Activity: Dose-Dependent Effect
Mus musculus [5]
  Activity: Active
Mus musculus [26]
  Activity: Dose-Dependent Effect
Mus musculus [27]
  Activity: inactive
